Drawing on ChEMBL document CHEMBL1158807, “Azadirachtin derivatives from seed kernels of Azadirachta excelsa” (J Nat Prod, 2005), this text covers LD50 for nine compounds.

SMILES strings stand for the structures.

Type in all cases: organism-based
What all share (details): in vivo

Series [1] relates to Plutella xylostella. Put plainly: Toxicity in Plutella xylostella larvae after 72 hrs.
Series [2] has as its system Plutella xylostella. Put plainly: Toxicity in Plutella xylostella larvae after 96 hrs.
Series [3] deals with Plutella xylostella. Put plainly: Toxicity in Plutella xylostella larvae after 48 hrs.
Series [4] deals with Plutella xylostella. The experiment in a line: Toxicity in Plutella xylostella larvae after 24 hrs.

Consider `C/C=C(\C)C(=O)O[C@H]1C[C@@H](OC(C)=O)[C@@]2(C(=O)OC)CO[C@H]3[C@@H](O)[C@@](C)([C@]45O[C@@]4(C)[C@H]4C[C@@H]5O[C@@H]5OC=C[C@@]54O)[C@@H]4[C@@H](C(=O)OC)OC[C@@]14[C@@H]32` [AZADIRACHTIN M], for which the LD50 with Plutella xylostella [1] amounted to 4.23 µg/g; with Plutella xylostella [2], 1.3 µg/g; in the series on Plutella xylostella [3] it was 4.84 µg/g; in the series on Plutella xylostella [4], 8.46 µg/g.
Take `C/C=C(\C)C(=O)O[C@H]1C[C@@H](OC(C)=O)[C@@]2(C(=O)OC)CO[C@H]3[C@@H](O)[C@@](C)([C@]45O[C@@]4(C)[C@H]4C[C@@H]5O[C@@H]5OC=C[C@@]54O)[C@@H]4[C@@H](OC(C)=O)OC[C@@]14[C@@H]32` [AZADIRACHTIN L]: the LD50 with Plutella xylostella [1] was found to be 5.39 µg/g; in the series with Plutella xylostella [2], 1.92 µg/g; in the series on Plutella xylostella [3] it was 7.89 µg/g; in the series on Plutella xylostella [4], 10.27 µg/g.
Taken in the same sequence, the figures for `C/C=C(\C)C(=O)O[C@H]1C[C@@H](OC(C)=O)[C@@]2(C(=O)OC)CO[C@H]3[C@@H](O)[C@@](C)([C@]45O[C@@]4(C)[C@@H]4C[C@H]5O[C@@H]5OC=C[C@@]54O)[C@H]4[C@]1(CO[C@]4(O)C(=O)OC)[C@@H]32` [AZADIRACHTIN A] were 1.28 µg/g, 0.87 µg/g, 4.12 µg/g and 7.04 µg/g.
Regarding `COC(=O)[C@H]1OC[C@]23[C@@H]1[C@](C)([C@]14O[C@@]1(C)[C@H]1C[C@@H]4O[C@@H]4OC=C[C@@]41O)[C@H](O)[C@@H]1OC[C@](C(=O)OC)([C@H](O)C[C@@H]2O)[C@H]13` [AZADIRACHTOL], the LD50 was 2.35 µg/g in the series with Plutella xylostella [1], 1.78 µg/g with Plutella xylostella [2], 3.28 µg/g in the series with Plutella xylostella [3] and 4.88 µg/g with Plutella xylostella [4].
As to `COC(=O)[C@@]12CO[C@H]3[C@@H](O)[C@@](C)([C@]45O[C@@]4(C)[C@H]4C[C@@H]5O[C@@H]5OC=C[C@@]54O)[C@@H]4[C@@H](O)OC[C@]4([C@@H](OC(=O)CC(C)C)C[C@H]1OC(C)=O)[C@@H]32` [AZADIRACHTIN P], the LD50 in the series with Plutella xylostella [1] was 1.19 µg/g; in the series with Plutella xylostella [2] it was 0.79 µg/g; with Plutella xylostella [3] it was 1.73 µg/g; in the series on Plutella xylostella [4], 2.19 µg/g.
On to `C/C=C(\C)C(=O)O[C@H]1C[C@@H](OC(C)=O)[C@@]2(C(=O)OC)CO[C@H]3[C@@H](O)[C@@](C)([C@]45O[C@@]4(C)[C@H]4C[C@@H]5O[C@@H]5OC=C[C@@]54O)[C@@H]4[C@@H](O)OC[C@@]14[C@@H]32`, for which the LD50 with Plutella xylostella [1] is 1.38 µg/g; in the series with Plutella xylostella [2], 0.75 µg/g; in the series on Plutella xylostella [3], 4.2 µg/g; with Plutella xylostella [4] it was 5.75 µg/g.
With `COC(=O)[C@H]1OC[C@@]23[C@@H](OC(C)=O)C[C@@H](OC(C)=O)[C@@]4(C(=O)OC)CO[C@@H]([C@@H](O)[C@@](C)([C@]56O[C@@]5(C)[C@H]5C[C@@H]6O[C@@H]6OC=C[C@@]65O)[C@H]12)[C@@H]43` [AZADIRACHTIN Q], the LD50 in the series with Plutella xylostella [1] turned out to be 1.4 µg/g; with Plutella xylostella [2], 1.1 µg/g; in the series with Plutella xylostella [3], 1.89 µg/g; with Plutella xylostella [4], 5.95 µg/g.
On to `C/C=C(\C)C(=O)O[C@@H]1C[C@H](O)[C@]23CO[C@H](C(=O)OC)[C@H]2[C@](C)([C@]24O[C@@]2(C)[C@H]2C[C@@H]4O[C@@H]4OC=C[C@@]42O)[C@H](O)[C@@H]2OC[C@@]1(C(=O)OC)[C@H]23` [AZADIRACHTIN B], for which the LD50 in the series with Plutella xylostella [1] was 1.56 µg/g; with Plutella xylostella [2], 1.06 µg/g; in the series on Plutella xylostella [3] it was 2.26 µg/g; with Plutella xylostella [4], 4.85 µg/g.
Consider `COC(=O)[C@H]1OC[C@@]23[C@@H](OC(=O)CC(C)C)C[C@@H](OC(C)=O)[C@@]4(C(=O)OC)CO[C@@H]([C@@H](O)[C@@](C)([C@]56O[C@@]5(C)[C@H]5C[C@@H]6O[C@@H]6OC=C[C@@]65O)[C@H]12)[C@@H]43` [AZADIRACHTIN O], for which the LD50 came out at 1.19 µg/g in the series with Plutella xylostella [1], 0.79 µg/g in the series with Plutella xylostella [2], 1.92 µg/g in the series on Plutella xylostella [3] and 3.92 µg/g in the series on Plutella xylostella [4].
